Assay results from patent US20040024055A1, “Pharmaceutical composition containing the exract of saururus chinensis baill useful as an anticancer agent and a process for the preparation thereof” (priority 2000, published 2004).

Experiments:
[1] = Anticancer activity of sauristolactam separated from saururus; details: separated from saururus and crystallized
[2] = system: cell line treated as in Experimental Example 1; test: LDH analysis of remaining cell after NO detection; type: cell-based; details: 1% Triton treatment
Source text: The remaining cell after NO detection was identified as dead by measuring existence rate and necrosis rate through MTT analysis and LDH analysis.

Compound | anticancer activity [1] | LDH Analysis (necrosis rate) [2] [%]
COc1c(O)cc2c3c(cc4ccccc4c13)N(C)C2=O [sauristolactam] | no anticancer activity was detected | 
Triton X-100 |  | 100
